As usually defined, the IC50 is the point on the concentration scale where inhibition reaches its midpoint.

Like-named read-outs stand apart in the source and are kept apart here.

The values below come from publication PMC8835363, “Arachidin-1, a Prenylated Stilbenoid from Peanut, Induces Apoptosis in Triple-Negative Breast Cancer Cells” (International Journal of Molecular Sciences, 2022).

Data set [1] relates to human leukemia HL-60 cell line. More on the design: method as in PMID 21067217. Conditions: 72 h treatment; cited from earlier work.
A further data set deals with MCF-7 cells. More on the design: method as in PMID 32721999, PMID 33643572. Particulars: cited from earlier work.
Another data set has as its system MDA-MB-231. More on the design: method as in PMID 32721999, PMID 33643572. Conditions: 24 h treatment, MTT assay; cited from earlier work.
A further data set relates to MDA-MB-231 cells. Description: RealTime-Glo MT cell viability (cytotoxicity) assay. Conditions: MDA-MB-231; for IC50: Homo sapiens. Format: cell-based, human. The method, then:
(§1) The cytotoxicity of RES, A-1, and A-3 was measured using the RealTime-Glo^TM MT Cell Viability Assay (Promega, Madison, WI, USA). The cells (10,000 cells/well) were seeded into 96-well plates. […] Cells with 0.1% DMSO (ATCC; Manassas, VA, USA) were included as a control. Luminescence was measured every 12 h for 72 total hours in a Cytation^TM 5 (BioTek, Winooski, VT, USA) plate reader. All experiments were performed in triplicates.

The subject of the next data set is MDA-MB-436 cells. Described as above. Conditions: MDA-MB-436. Format: cell-based, human. How it is done: as §1
Data set [2] deals with UDP-glucuronosyltransferases. Particulars: in vitro metabolism; cited from earlier work.
[3] abbreviates: MDA-MB-231, 24 h, 24 h, in Figure 2 panels.
The mark [4] stands for this setting: MDA-MB-231, 24 h, 24 h of treatment.
[5] abbreviates: MDA-MB-231, 48 h, 48 h of treatment.
The mark [6] stands for this setting: MDA-MB-231, 72 h, 72 h of treatment.
Setting [7] is: Homo sapiens, MDA-MB-436, 24 h, 24 h.
[8] abbreviates: Homo sapiens, MDA-MB-436, 24 h, 24 h, in Figure 2 panels.
The mark [9] stands for this setting: Homo sapiens, MDA-MB-436, 48 h, 48 h.
Where [10] appears, read: Homo sapiens, MDA-MB-436, 72 h, 72 h.

On to `Oc1ccc(/C=C/c2cc(O)cc(O)c2)cc1` [RES, resveratrol, reference compound], for which the IC50 was 17.6 µM in data set [1]; 131 µM in the data set with MCF-7 cells (24 h treatment); 83.9 µM in the data set with MCF-7 cells (48 h treatment); 144 µM in the data set with MDA-MB-231; 6.27 µM in the data set with MDA-MB-231 cells (setting [3]); 32.1 µM in the data set on MDA-MB-231 cells (setting [4]). The half-maximal inhibitory concentration (IC50) was 11.5 µM in the data set with MDA-MB-231 cells (MDA-MB-231, 48 h, 48 h, in Figure 2 panels); 6.54 µM with MDA-MB-231 cells (setting [5]); 10.8 µM in the data set with MDA-MB-231 cells (setting [6]); 37.5 µM in the data set with MDA-MB-436 cells (setting [7]); 9.16 µM in the data set with MDA-MB-436 cells (setting [8]); 23.7 µM in the data set with MDA-MB-436 cells (setting [9]). Besides, in the data set on MDA-MB-436 cells (setting [10]), the concentration for half-maximal inhibition (IC50) was found to be 15.7 µM.
As for `CC(C)/C=C/c1c(O)cc(/C=C/c2ccc(O)cc2)cc1O` [A-3, arachidin-3], the half-inhibitory concentration (IC50) is 18.9 µM in data set [1]; 9.51 µM in the data set with MDA-MB-231 cells (setting [3]); 18.7 µM in the data set on MDA-MB-231 cells (setting [4]); 16.2 µM in the data set on MDA-MB-231 cells (setting [5]); 18.7 µM with MDA-MB-231 cells (setting [6]); 11 µM with MDA-MB-436 cells (setting [7]). Besides, the IC50 is 10.9 µM in the data set on MDA-MB-436 cells (setting [8]), 16.7 µM with MDA-MB-436 cells (setting [9]), 19.8 µM in the data set with MDA-MB-436 cells (setting [10]) and 19.8 µM with MDA-MB-436 cells (72 h). For the same compound, the “glucuronidated products compared to non-prenylated analogs piceatannol and RES” value in data set [2] was “lower glucuronidated products”. The “growth inhibition at low concentrations” value was “no growth inhibition below 10 µM” in the data set on MDA-MB-231 cells (0.01-10 µM, 72 h) and “no growth inhibition below 10 µM” in the data set with MDA-MB-436 cells (0.01-10 µM, 72 h).
